Measurements taken from patent US10053468B2, “Heterocyclic compound” (TAKEDA PHARMACEUTICAL COMPANY LIMITED, priority 2013, dated 2018).

Legend:
[1] = tested on: IL-17 production in human blood; assay: Effect on IL-17 production in human blood; type: cell-based; settings: 72 h, 10 μM test compound, IL-23 and Dynabeads stimulation, 3 days, read-out: Percent Inhibition at 10 μM (IL-17 production)
Procedure: Effect on IL-17 Production in Human Blood
The inhibitory effect of the test compound on IL-17 production in human blood was evaluated as follows. First, 150 μL of peripheral blood collected from healthy individuals using heparinized vacuum blood collection tubes was dispensed into each well of a 96-well plate (Corning), and 45 μL of RPMI 1640 medium (Gibco) containing 10% fetal bovine serum (FBS, Hyclone) and 30 μL of the test compound diluted with the medium was added to each well. The plate was then cultured for 30 min at 37° C. Cells were subsequently stimulated by adding 30 μL of 100 ng/mL human IL-23 (R&D) and 45 μL of Dynabeads Human (Invitrogen) to each well and culturing the plate for 3 days at 37° C. In wells without stimulation, 75 μL of RPMI 1640 medium containing 10% FBS was added instead of the IL-23 and Dynabeads solution. After culturing for 3 days, the culture supernatant was collected, and the amount of IL-17 in the supernatant was measured using an IL-17 ELISA kit (R&D).
The results of the above-described measurements (percent inhibition of IL-17 production with 10 μM of the test compound) are shown in Table 4.

IL-17A gene expression = assay: Effect on IL-23-induced cytokine expression in mice; type: in vivo, Balb/c mice; settings: Mus musculus, 30 min before and 8 hr after IL-23, versus the negative control group, read-out: Percent inhibition of IL-17A gene expression; for inhibition in vivo at 10 mg/kg: dose 10 mg/kg oral; for inhibition in vivo at 30 mg/kg: dose 30 mg/kg oral
Procedure: Effect on IL-23-induced Cytokine Expression in Mice
A mouse IL-23 solution (500 ng/10 μL, prepared by Takeda Pharmaceutical Company Limited) or PBS (10 μL, negative control group) was administered intradermally in the ear of Balb/c mice (Charles River Japan, male, 7 weeks old). Twenty-four hr after administration, the ear was resected under isoflurane anesthesia. The test compound was suspended in 0.5% methylcellulose and administered orally 30 min before and 8 hr after IL-23 administration.
RNA extraction from the ear tissue and quantitative PCR were performed as follows. Specifically, ear tissue 5 mm in diameter was punched from an area of the resected ear centering on the IL-23 injection site, and the tissue was immersed in RNAlater (QIAGEN) for at least 18 hr. The RNAlater-treated ear tissue was homogenized in 350 μL of RLT buffer (RNeasy mini kit, QIAGEN) and treated (55° C., 10 min) with Proteinase K (QIAGEN). Total RNA was then extracted according to the RNeasy mini kit protocol. The RNA thus obtained was then reverse transcribed into cDNA using the High-Capacity RNA-to-cDNA kit (Applied Biosystems), and the amount of each cytokine expressions was measured by real-time PCR (Viia7™, Applied Biosystems). The PCR buffer used was TaqMan Fast Advanced Master Mix (Applied Biosystems), and TaqMan Gene Expression Assays (Applied Biosystems) Mm00439618 ml (IL-17A) and 4352341E (β-actin) were used for cytokine gene detection. The IL-17A gene expression level was normalized to the R-actin gene expression level, and the percent inhibition of IL-17A gene expression with the test compound was then calculated.
The results obtained with the above-described method (percent inhibition of IL-17A gene expression with oral administration of the test compound) are shown in Table 5.

[2] = tested on: mouse model of IL-23-induced psoriasis; assay: Effect in a mouse model of IL-23-induced psoriasis; type: in vivo, Balb/c mice; settings: dose 30 mg/kg oral twice daily; versus the negative control group
Procedure: Effect in a Mouse Model of IL-23-induced Psoriasis
Mouse IL-23 (500 ng/15 μL, R&D) or PBS (15 μL, negative control group) was administered intradermally in the ear of Balb/c mice (Charles River Japan, male, 7 weeks old) 5 times every other days. Seven hr after IL-23 administration at 8 days after the initial administration (final administration), the mice were anesthetized with isoflurane, and ear thickness was measured with calipers. After the ear thickness was measured, the ear was resected, tissue 8 mm in diameter was punched from an area centering on the IL-23 injection site, and the tissue was weighed. The punched ear tissue was cut in half, and one half was immersion-fixed in 10% neutral buffer formalin solution for use in histopathological evaluation. The other half was immersed in RNAlater (QIAGEN) for at least 18 hr for use in an evaluation of the IL-17A mRNA expression level. The test compound was suspended in 0.5% methylcellulose and administered orally twice daily on consecutive days from 30 min before the initial IL-23 administration to 30 min before the final IL-23 administration.
The change in ear thickness in this model was evaluated by calculating the difference in measured thickness between before IL-23 administration and 7 hr after the final IL-23 administration. In addition, the formalin-fixed tissue was embedded and sectioned, then stained with hematoxylin-eosin. The degree of acanthosis was then evaluated qualitatively by microscopy (classified with a score of 0 to 4). RNA extraction from the ear tissue and quantitative PCR were performed as follows. […] The RNA thus obtained was reverse transcribed into cDNA using the High-Capacity RNA-to-cDNA kit (Applied Biosystems), and the expression of each gene was measured by real-time PCR (Viia7™, Applied Biosystems). […] The IL-17A gene expression level was normalized to the R-actin gene expression level, and the percent inhibition of IL-17A gene expression with the test compound was then calculated. […]

RORγt [3] = target: T1, RORγt (Homo sapiens, UniProt P51449); assay: RORγt binding test using fluorescent-labeled cholesterol (TR-FRET); settings: read-out: Binding inhibitory rate of fluorescent-labeled cholesterol to RORγt at test compound 1 μM (%)
T1 sequence (P51449 1-497 isoform P51449-2): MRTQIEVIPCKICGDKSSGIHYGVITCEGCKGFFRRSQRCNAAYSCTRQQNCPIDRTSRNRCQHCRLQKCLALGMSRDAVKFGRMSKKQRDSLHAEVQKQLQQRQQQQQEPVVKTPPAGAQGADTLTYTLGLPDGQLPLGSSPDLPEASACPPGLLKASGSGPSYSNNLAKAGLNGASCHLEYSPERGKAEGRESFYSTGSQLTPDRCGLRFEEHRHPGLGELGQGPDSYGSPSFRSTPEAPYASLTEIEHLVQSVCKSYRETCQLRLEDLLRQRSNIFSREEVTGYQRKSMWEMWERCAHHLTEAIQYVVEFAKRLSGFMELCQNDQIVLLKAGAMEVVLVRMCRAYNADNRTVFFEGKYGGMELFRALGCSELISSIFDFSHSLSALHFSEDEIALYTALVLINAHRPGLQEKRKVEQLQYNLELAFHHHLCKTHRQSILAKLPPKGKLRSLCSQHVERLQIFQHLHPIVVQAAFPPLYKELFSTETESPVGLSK
Procedure, shortened: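 After 20 min at room temperature with His-tagged RORγt and BODIPY-cholesterol in pH 7.5 Tris buffer (NaCl, DTT, BSA), compound wells got terbium anti-His antibody for another 20 min. Time-resolved FRET was read with excitation 320 nm, emission 520 nm and a 100 µs delay.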

RORγt [4] = target: T1, RORγt; assay: RORγt binding test using fluorescent-labeled synthetic ligand (TR-FRET); settings: read-out: Binding inhibitory rate of fluorescent-labeled synthetic ligand to RORγt at test compound 1 μM (%)
Procedure, shortened: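 His-tagged RORγt (diluted to 240 nM) with compound, then fluorescent synthetic ligand (diluted to 12 μM), 20 min at room temperature, followed by Tb anti-His antibody (diluted to 8 nM), 20 min.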

RORγt [5] = target: T1, RORγt; assay: Cofactor recruitment test (Alpha Screen, biotinylated SRC-1 peptide); type: biochemical; settings: read-out: Signal value inhibitory rate at test compound 1 μM (%)
Procedure: Cofactor Recruitment Test
Cofactor recruitment test was performed by Alpha Screen (Histidine Detection Kit, PerkinElmer) method. First, a test compound was diluted with an assay buffer (50 mM Tris-HCl (pH 7.5), 50 mM KCl, 1 mM DTT, 0.1% BSA) and added to a 384 well plate by 5 μL. […] The mixture was stood in a dark place for 1 hr, and the signal value was measured by Envision (PerkinElmer).

RORγt [6] = target: T1, RORγt; assay: Jurkat reporter test (human IL-17 ROR response element luciferase, RORγt vector); type: cell-based; settings: Jurkat, read-out: Luminescence level inhibitory rate at test compound 3 μM (%)
Procedure, shortened: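 Luminescence (Bright-Glo, 10 min, RT) was measured after overnight compound treatment of electroporated Jurkat cells (1350 V, 10 ms interval, 3 pulses). The reaction medium was RPMI with 10% lipid-reduced FCS, 10 mM HEPES (pH 7.5) and 5 μM lovastatin.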

## COc1ccc2c(n1)CCN(C(=O)CCCC(=O)O)[C@H]2C(=O)Nc1cc(F)c2c(c1)CCC2(C)C [Example 118, 5-((5R)-5-((7-fluoro-1,1-dimethyl-2,3-dihydro-1H-inden-5-yl)carbamoyl)-2-methoxy-7,8-dihydro-1,6-naphthyridin-6(5H)-yl)-5-oxopentanoic acid]
[1]
  inhibition at 10 µM: 88%
IL-17A gene expression
  inhibition in vivo at 10 mg/kg: 87%
[2]
  Percent Inhibition of Acanthosis Score: 80%
  Percent Inhibition of Ear Thickness: 61%
  Percent Inhibition of IL-17A Expression: 111%

## COc1ccc2c(n1)CCN(C(=O)CCCC(=O)O)[C@H]2C(=O)Nc1ccc([Si](C)(C)C)c(F)c1 [Example 140, 5-((5R)-5-((3-fluoro-4-(trimethylsilyl)phenyl)carbamoyl)-2-methoxy-7,8-dihydro-1,6-naphthyridin-6(5H)-yl)-5-oxopentanoic acid]
RORγt [3]
  inhibition at 1 µM: 100%
RORγt [4]
  inhibition at 1 µM: 101%
RORγt [5]
  inhibition at 1 µM: 95%
RORγt [6]
  inhibition at 3 µM: 102%
[1]
  inhibition at 10 µM: 91%
IL-17A gene expression
  inhibition in vivo at 30 mg/kg: 90%

## CCOc1ccc2c(c1)CCN(C(=O)CCCC(=O)O)[C@H]2C(=O)Nc1cc(F)c([Si](C)(C)C)c(F)c1 [Example 179, 5-((1R)-1-((3,5-difluoro-4-(trimethylsilyl)phenyl)carbamoyl)-6-ethoxy-3,4-dihydroisoquinolin-2(1H)-yl)-5-oxopentanoic acid]
RORγt [4]
  inhibition at 1 µM: 101%
RORγt [5]
  inhibition at 1 µM: 94%
RORγt [6]
  inhibition at 3 µM: 102%
[1]
  inhibition at 10 µM: 82%
IL-17A gene expression
  inhibition in vivo at 30 mg/kg: 95%

## COc1ccc2c(c1)CCN(C(=O)N1CC(CC(=O)O)C1)[C@H]2C(=O)Nc1cc(F)c([Si](C)(C)C)c(F)c1 [Example 260, (1-(((1R)-1-((3,5-difluoro-4-(trimethylsilyl)phenyl)carbamoyl)-6-methoxy-3,4-dihydroisoquinolin-2(1H)-yl)carbonyl)azetidin-3-yl)acetic acid]
RORγt [4]
  inhibition at 1 µM: 102%
RORγt [5]
  inhibition at 1 µM: 95%
RORγt [6]
  inhibition at 3 µM: 101%
[1]
  inhibition at 10 µM: 89%
IL-17A gene expression
  inhibition in vivo at 10 mg/kg: 76%

## C[Si](C)(C)c1c(F)cc(NC(=O)[C@H]2c3ccc4c(c3CCN2C(=O)N2CC(CC(=O)O)C2)OCO4)cc1F [Example 272, (1-(((6R)-6-((3,5-difluoro-4-(trimethylsilyl)phenyl)carbamoyl)-8,9-dihydro[1,3]dioxolo[4,5-f]isoquinolin-7(6H)-yl)carbonyl)azetidin-3-yl)acetic acid]
RORγt [4]
  inhibition at 1 µM: 102%
RORγt [5]
  inhibition at 1 µM: 101%
RORγt [6]
  inhibition at 3 µM: 100%
[1]
  inhibition at 10 µM: 93%
IL-17A gene expression
  inhibition in vivo at 10 mg/kg: 86%
